According to US11946094B2, “Combination therapies and methods of use thereof” (Augusta University Research Institute, Inc., priority 2017, dated 2024):
Like-named read-outs stand apart in the source and are kept apart here.

How the values were obtained:
OVCAR-8 cells [1] = test: Drug titration (GI50) with S100A11 siRNA knockdown versus sham control; format: cell-based; settings: serial dilution of drug, three replicates
Procedure: Statistical analyses were performed using the R language and environment for statistical computing (R version 3.3.1; R Foundation for Statistical Computing) and Microsoft Excel. Student's T-test (two-tailed, unpaired) was used to calculate p-values for confirmation of drug effect. GI50 values were calculated using a four-parameter logistic function to obtain a classical “s” curve for drug titrations using SigmaPlot (Systat Software, San Jose, CA). Heatmaps were created using the R package “pheatmap”. Clustering was done with WPGMA hierarchical clustering. QIAGEN's Ingenuity Pathway Analysis (IPA®, QIAGEN Redwood City) was utilized for assessment of network and pathway contributions of top genes identified using the NCI-60 correlations.
An important measure of synergism is the dosage reduction of a therapeutic compound by another agent. Titration screening with several compounds was performed to compare growth curves with and without knockdown of S100A11 or KLHL5. […] KLHL5 also was synergistic with other cell cycle inhibitors and PI3K-AKT-mTOR inhibitors. Titration curves and calculation of GI50 were performed for twenty-four compounds.

OVCAR-8 cells [2] = test: Drug-siRNA combination screen: 346-compound anticancer library at 100 nM, CCK-8 viability; settings: for synergy / antagonism of drug with gene knockdowns, in words: drug 100 nM, panel of 18 siRNA knockdowns; for number of tested HDACi highly synergistic with the gene knockdown: 12 tested HDACi; for number of antagonistic/additive or highly antagonistic compounds with the gene knockdown: 346 compounds
AB1-HA tumor model = settings: CTX treatment at Day 9; cited from earlier work
[3] = OVCAR-8, drug 100 nM plus siRNA knockdown of each of 18 genes, distance VAB−VA×VB in SD, single gene contributes at most +5 / −5, negative = synergy, positive = antagonism

| Compound | Score (sum of observed SD values for 18 genes) (OVCAR-8 cells [2]; [3]) [SD] | further results |
| --- | --- | --- |
| O=C(/C=C/c1cccc(S(=O)(=O)Nc2ccccc2)c1)NO [Belinostat] | −20.81 | dose reduction of GI50 value by S100A11 siRNA versus sham control (OVCAR-8 cells [1]): 5.56 fold; synergy / antagonism of drug with gene knockdowns, in words (OVCAR-8 cells [2]; OVCAR-8): mostly synergistic |
| O=P1(N(CCCl)CCCl)NCCCO1 (stereo not shown) [Cyclophosphamide] | – | cure rate (AB1-HA tumor model): 75% |
| Cn1cc(CNCC2CCN(c3ncc(C(=O)NO)cn3)CC2)c2ccccc21 [JNJ-26481585, Quisinostat] | −2.31 | dose reduction of GI50 value by S100A11 siRNA versus sham control (OVCAR-8 cells [1]): 5.53 fold |
| Cl.Cl.Clc1ccc(Nc2nnc(Cc3ccncc3)c3ccccc23)cc1 [Vatalanib 2HCI] | −3.51 | – |
| CCOC(=O)C1=C[C@]2(CC)CCCN3CCc4c(n1c1ccccc41)[C@@H]32 [Vinpocetine] | −1.42 | – |
| CC[C@@H]1C(=O)N(C)c2cnc(Nc3ccc(C(=O)N[C@H]4CC[C@H](N5CCN(CC6CC6)CC5)CC4)cc3OC)nc2N1C(C)C [Volasertib] | 10.79 | – |
| CC(C)OC(=O)C1=CN(C(=O)c2ccc(F)c(F)c2)CC(C)(C)c2c1[nH]c1ccccc21 [WAY-362450] | −29.97 | – |
| CCC[C@H](NC(=O)/C(C#N)=C/c1cccc(Br)n1)c1ccccc1 [WP1130] | 3.15 | – |
| C=CC(=O)Nc1cccc(Oc2nc(Nc3ccc(N4CCN(C)CC4)cc3OC)ncc2Cl)c1 [WZ4002] | −41.61 | – |
| Oc1nc(-c2ccc(C(F)(F)F)cc2)nc2c1CSCC2 [XAV-939] | −29.25 | – |
| COc1ccc(Cl)c(Nc2nc3ccccc3nc2NS(=O)(=O)c2cccc(NC(=O)C(C)(C)N)c2)c1 [XL147] | −30.94 | – |
| CCn1c(=O)c(-c2cc[nH]n2)cc2c(C)nc(N)nc21 [XL765] | −10.06 | – |
| C[C@@H](N)[C@H]1CC[C@H](C(=O)Nc2ccncc2)CC1.Cl.Cl [Y-27632 2HCI] | −28.91 | – |
| COCCn1c2c([n+](Cc3cnccn3)c1C)C(=O)c1ccccc1C2=O [YM155] | −1.58 | – |
| Nc1ccc(C(=O)Nc2cccc(-c3nc(N4CCOCC4)c4oc5ncccc5c4n3)c2)cn1 [YM201636] | −32.89 | – |
| FC(F)c1nc2ccccc2n1-c1nc(N2CCOCC2)nc(N2CCOCC2)n1 [ZSTK474] | -52.94 | synergy / antagonism of drug with gene knockdowns, in words (OVCAR-8 cells [2]; OVCAR-8): synergy to the vast majority of genes |
| COc1nc(C)cnc1NS(=O)(=O)c1cccnc1-c1ccc(-c2nnco2)cc1 [Zibotentan] | 10.07 | – |
| CC(c1cc2ccccc2s1)N(O)C(N)=O (stereo not shown) [Zileuton] | −19.64 | – |
| AXL: siRNA knocking down AXL; sense CAGCGAGAUUUAUGACUAUtt (SEQ ID NO 15) (sense CAGCGAGAUUUAUGACUAUNN; antisense AUAGUCAUAAAUCUCGCUGNN; listed as RNA, chemistry not given here) | – | number of tested HDACi highly synergistic with the gene knockdown (OVCAR-8 cells [2]; OVCAR-8): at least six; number of antagonistic/additive or highly antagonistic compounds with the gene knockdown (OVCAR-8 cells [2]; OVCAR-8): Twelve or fewer |
| AZ 3146 | −22.56 | – |
| KLHL5: siRNA knocking down KLHL5; sense CAGGCCGCCUUGAAUUAAAtt (SEQ ID NO 23) (sense CAGGCCGCCUUGAAUUAAANN; antisense UUUAAUUCAAGGCGGCCUGNN; listed as RNA, chemistry not given here) | – | number of tested HDACi highly synergistic with the gene knockdown (OVCAR-8 cells [2]; OVCAR-8): at least six; number of antagonistic/additive or highly antagonistic compounds with the gene knockdown (OVCAR-8 cells [2]; OVCAR-8): Twelve or fewer; number of Aurora Kinase inhibitors with significant synergy with the gene knockdown (OVCAR-8 cells [2]; OVCAR-8, eleven tested inhibitors): eight of the eleven |
| Maraviroc | – | Score (sum of observed SD values for 18 genes) (OVCAR-8 cells [2]): 0.11 SD |
| Medroxyprogesterone | −35.82 | – |
| S100A11: siRNA knocking down S100A11; sense GAACUAGCUGCCUUCACAAtt (SEQ ID NO 27) (sense GAACUAGCUGCCUUCACAANN; antisense UUGUGAAGGCAGCUAGUUCNN; chemistry not given here) | – | number of tested HDACi highly synergistic with the gene knockdown (OVCAR-8 cells [2]; OVCAR-8): 10 of 12 |
| SLC7A11: siRNA knocking down SLC7A11; sense GGCUGAUUUAUCUUCGAUAtt (SEQ ID NO 31) (sense GGCUGAUUUAUCUUCGAUANN; antisense UAUCGAAGAUAAAUCAGCCNN; listed as RNA, chemistry not given here) | – | number of tested HDACi highly synergistic with the gene knockdown (OVCAR-8 cells [2]; OVCAR-8): at least six; number of antagonistic/additive or highly antagonistic compounds with the gene knockdown (OVCAR-8 cells [2]; OVCAR-8): Twelve or fewer |
| SNS-314 Mesylate | −1.05 | – |
| USP40: siRNA knocking down USP40; sense GGAAACUAGCUGUUAUACAtt (SEQ ID NO 35) (sense GGAAACUAGCUGUUAUACANN; antisense UGUAUAACAGCUAGUUUCCNN; listed as RNA, chemistry not given here) | – | number of tested HDACi highly synergistic with the gene knockdown (OVCAR-8 cells [2]; OVCAR-8): at least six; number of antagonistic/additive or highly antagonistic compounds with the gene knockdown (OVCAR-8 cells [2]; OVCAR-8): Twelve or fewer |
| WYE-354 | −13.86 | – |
